Assays:
AAK1 [1] = target: T1, AAK1 (Homo sapiens, UniProt Q2M2I8); test: HEK281 cell-based assay (phospho-mu2 Western blot in transfected HEK293F cells); settings: 3 hours incubation, read-out: CBA IC50
T1 construct: HA; expressed in transfected cells; host or cells: HEK293F
In short: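 After 3 hours at 37° C. with compound (five 3-fold-spaced concentrations, DMEM+0.5% FBS), transiently transfected HEK293F cells expressing full-length human AAK1 and Flag-tagged mu2 were lysed. mu2 phosphorylation was read by anti-phospho-mu2 immunoblot, normalized against total mu2 by anti-Flag blot.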

AAK1 [2] = target: T1, AAK1; test: P81 filter plate assay; format: biochemical; settings: full-length human AAK1, Mu2 substrate
Method: Compounds were serially diluted into a Labcyte LDV plate (Labcyte, cat#LP-0200) using a Mutiprobe (PerkinElmer) and Biomek FX (Beckman Coulter) so that the highest compound concentration was at 96 μM. Compounds were then pinged (75 nL per well) into a Greiner 384-well reaction plate (Greiner, #781076) using an ECHO 550 Liquid Handler (Labcyte). A total of 12 μl reaction buffer (IMAP buffer containing Tween and DTT, from Molecular Devices) was then added to each well of columns 1 and 13 for the negative controls and 12 μl of 2×AAK1 (0.2 nM full-length human protein, NCBI accession no. NP_055726.2) was added to the remaining wells. Enzyme was then pre-incubated with compound for 10 minutes at RT. Reactions were initiated upon Minitrak (PerkinElmer) addition of 12 μl substrate mix containing 2×Mu2 (0.2 μM, full length human protein), 2× cold ATP (2 μM), and 1.3 μCi of hot ^33P-ATP. Reactions proceeded for one hour at RT. Meanwhile, Millipore 384-well P81 filter plates (Millipore, catalog #MZPHNOW10) were placed on a plate washer (Zoom ZW, from Titertek) and pre-wet with 50 μl 1% phosphoric acid. Kinase reactions were then stopped upon addition of 24 μl of 2% phosphoric acid to each well and the Minitrak was then used to transfer 40 μl from each well into the pre-wet Millipore 384-well P81 filter plates. Reaction mixtures were incubated for 10 minutes at RT in the P81 plates, followed by washing five times with 100 μl/well of 1% phosphoric acid using the Zoom filter washer. The bottom of each filter plate was sealed followed by addition of 20 μl Microscint 40 to each well, sealing the top of the plates with Flashplate cover, and then waiting one hour until reading on the TopCount (PerkinElmer).

T1 sequence (Q2M2I8 1-863 isoform Q2M2I8-2): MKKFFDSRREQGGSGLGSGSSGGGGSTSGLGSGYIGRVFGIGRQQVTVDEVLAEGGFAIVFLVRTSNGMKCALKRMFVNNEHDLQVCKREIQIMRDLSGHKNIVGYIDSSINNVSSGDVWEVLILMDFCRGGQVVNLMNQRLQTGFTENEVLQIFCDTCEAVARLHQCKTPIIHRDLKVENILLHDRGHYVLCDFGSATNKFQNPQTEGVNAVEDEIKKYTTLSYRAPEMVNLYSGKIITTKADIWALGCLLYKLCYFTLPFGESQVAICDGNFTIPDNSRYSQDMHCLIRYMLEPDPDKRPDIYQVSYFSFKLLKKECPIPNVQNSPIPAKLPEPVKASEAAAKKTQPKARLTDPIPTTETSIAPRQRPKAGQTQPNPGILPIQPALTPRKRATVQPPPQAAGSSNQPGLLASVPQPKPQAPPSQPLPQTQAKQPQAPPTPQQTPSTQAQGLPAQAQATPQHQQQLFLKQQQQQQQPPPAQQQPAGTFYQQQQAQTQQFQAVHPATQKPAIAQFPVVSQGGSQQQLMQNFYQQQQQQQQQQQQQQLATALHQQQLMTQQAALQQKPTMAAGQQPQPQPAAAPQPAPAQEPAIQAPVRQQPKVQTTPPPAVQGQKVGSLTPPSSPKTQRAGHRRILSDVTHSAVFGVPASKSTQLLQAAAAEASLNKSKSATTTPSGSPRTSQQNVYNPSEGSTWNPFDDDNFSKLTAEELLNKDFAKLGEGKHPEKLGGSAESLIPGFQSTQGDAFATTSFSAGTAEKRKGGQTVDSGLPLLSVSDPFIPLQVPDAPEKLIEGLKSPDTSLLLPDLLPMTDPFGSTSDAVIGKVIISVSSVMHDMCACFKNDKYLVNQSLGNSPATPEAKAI

Row | SMILES | IC50 (AAK1 [1]) [nM] | IC50 (AAK1 [2]) [nM]
1 | COc1cccc(-c2cnc3ccc(NC[C@@H]4CCCN4C(=O)CC(C)C)nn23)c1 [(S)-1-(2-(((3-(3-methoxyphenyl)imidazo[1,2-b]pyridazin-6-yl)amino)methyl)pyrrolidin-1-yl)-3-methylbutan-1-one] | ≤ 100 | ≤ 10
2 | CC(C)(C)C(=O)N1CCC[C@H]1CNc1ccc2ncc(-c3ccc(CN)cc3)n2n1 [(S)-1-(2-(((3-(4-(aminomethyl)phenyl)imidazo[1,2-b]pyridazin-6-yl)amino)methyl)pyrrolidin-1-yl)-2,2-dimethylpropan-1-one] | ≤ 100 | ≤ 10
3 | CC(C)(C)CC(=O)N1CCC[C@H]1CNc1ccc2ncc(-c3ccc(CN)cc3)n2n1 [(S)-1-(2-(((3-(4-(aminomethyl)phenyl)imidazo[1,2-b]pyridazin-6-yl)amino)methyl)pyrrolidin-1-yl)-3,3-dimethylbutan-1-one] | ≤ 100 | ≤ 10
4 | CCCC(=O)N1CCC[C@H]1CNc1ccc2ncc(-c3ccc(CN)cc3)n2n1 [(S)-1-(2-(((3-(4-(aminomethyl)phenyl)imidazo[1,2-b]pyridazin-6-yl)amino)methyl)pyrrolidin-1-yl)butan-1-one] | ≤ 10 | ≤ 10
5 | CC(C)CC(=O)N1CCC[C@H]1CNc1ccc2ncc(-c3ccc(F)cc3)n2n1 [(S)-1-(2-(((3-(4-fluorophenyl)imidazo[1,2-b]pyridazin-6-yl)amino)methyl)pyrrolidin-1-yl)-3-methylbutan-1-one] | ≤ 100 | ≤ 10
6 | COc1ccc(-c2cnc3ccc(NC[C@@H]4CCCN4C(=O)CC(C)C)nn23)cc1 [(S)-1-(2-(((3-(4-methoxyphenyl)imidazo[1,2-b]pyridazin-6-yl)amino)methyl)pyrrolidin-1-yl)-3-methylbutan-1-one] | ≤ 1000 | ≤ 10
7 | COc1ncccc1-c1cnc2ccc(NC[C@@H]3CCC(=O)N3CCC(C)(C)C)nn12 [(S)-1-(3,3-dimethylbutyl)-5-(((3-(2-methoxypyridin-3-yl)imidazo[1,2-b]pyridazin-6-yl)amino)methyl)pyrrolidin-2-one] | ≤ 10 | ≤ 10

Results, then the compound that gave them:

Row | IC50 (AAK1 [1]) [nM] | IC50 (AAK1 [2]) [nM] | SMILES
8 | ≤ 1000 | ≤ 10 | CC(C)(C)CCN1C(=O)CC[C@H]1CNc1ccc2ncc(-c3ccccc3)n2n1 [(S)-1-(3,3-dimethylbutyl)-5-(((3-phenylimidazo[1,2-b]pyridazin-6-yl)amino)methyl)pyrrolidin-2-one]
9 | ≤ 100 | ≤ 10 | CC(=O)c1cnc2ccc(N3CCN(C(=O)[C@@H](N)C(C)C)CC3)nn12 [(S)-1-(4-(3-acetylimidazo[1,2-b]pyridazin-6-yl)piperazin-1-yl)-2-amino-3-methylbutan-1-one]
10 | ≤ 1000 | ≤ 10 | CC1(OC(=O)N2CCC[C@H]2CNc2ccc3ncc(Br)n3n2)CCCC1 [(S)-1-methylcyclopentyl 2-(((3-bromoimidazo[1,2-b]pyridazin-6-yl)amino)methyl)pyrrolidine-1-carboxylate]
11 | ≤ 100 | ≤ 10 | COc1ncccc1-c1cnc2ccc(N3CC[C@H](N(C)C(=O)OCC(F)(F)F)C3)nn12 [(S)-2,2,2-trifluoroethyl (1-(3-(2-methoxypyridin-3-yl)imidazo[1,2-b]pyridazin-6-yl)pyrrolidin-3-yl)(methyl)carbamate]
12 | ≤ 100 | ≤ 10 | CC(C)(C)NC(=O)N1CCC[C@H]1CNc1ccc2ncc(Br)n2n1 [(S)-2-(((3-bromoimidazo[1,2-b]pyridazin-6-yl)amino)methyl)-N-(tert-butyl)pyrrolidine-1-carboxamide]
13 | ≤ 10 | ≤ 10 | COc1ncccc1-c1cnc2ccc(N3CCN(C(=O)[C@@H](N)CC(C)C)CC3)nn12 [(S)-2-amino-1-(4-(3-(2-methoxypyridin-3-yl)imidazo[1,2-b]pyridazin-6-yl)piperazin-1-yl)-4-methylpentan-1-one]
14 | ≤ 10 | ≤ 10 | O=C(CC(F)(F)F)N1CCC[C@H]1CNc1ccc2ncc(-c3ccccc3)n2n1 [(S)-3,3,3-trifluoro-1-(2-(((3-phenylimidazo[1,2-b]pyridazin-6-yl)amino)methyl)pyrrolidin-1-yl)propan-1-one]

— patent publication US8969565B2, “Imidazo[1,2-b]pyridazine-based compounds, compositions comprising them, and methods of their use” (Lexicon Pharmaceuticals, Inc., priority 2012, dated 2015)
